Read-outs that look alike come from different tables or passages of the source. Where a SMILES comes first, the peptide text is derived from it. Bridges are numbered along the chain shown (N, C = ends).
Key:
E. coli ATCC 10536 = test: Plate assay screening of variants expressed in S. cerevisiae, overlaid with target organism in presence of horse blood or serum; assay type: cell-based, Escherichia coli; settings: 2.5% blood, 5% blood or 5% serum
Source text: Several strategies were used for variant generation of the polynucleotide of SEQ ID NO:1. The resulting libraries were cloned and expressed in S. cerevisiae. Transformed clones were screened on a plate assay containing growth media supplemented with 1.5% galactose and 0.5% glucose and either horse blood (2.5-5%) or serum (5%), overlayed with the target organism, E. coli ATCC 10536 (See Raventos et al., 2005, Comb Chem High Throughput Screen. 8:219-33).
Approximately, 300 Saccharomyces cerevisiae colonies expressing arenicin variants were spread on screening plates containing either horse blood (2.5% or 5%) or 5% horse serum (see composition of the plates below). Plates were incubated 3 hours at 30° C. to allow them to dry. Next, 25 ml overlay temperate at 42° C. was added to the plates. After the media had solidified, the plates were incubated 3 days at 30° C.
On day 4, plates were overlayed with pre-warmed media at 42° C. containing either 2.5% or 5% horse blood or 5% horse serum and the target bacteria, E. coli ATCC 10536 (see below for details on media composition). After the overlay solidified, plates were incubated 16 hours at 37° C. Next day, plates were colored by adding 10 ml of 1.5 mM MTT to the plates and incubated at room temperature for 30 minutes. Clones giving rise to clearing zones were picked and sequenced. […]

[1] = Determination of the protein binding (90% serum, 30 kDa filter, HPLC); assay type: in vitro ADME
Experimental: Protein binding assays were performed as follows. The purified peptides were mixed with 90% serum and centrifuged through a 30 kDa filter. The ultra-filtrate and the non filtrated serum samples were quantified by HPLC measurements and the protein binding was subsequently calculated.

Compound | antimicrobial activity in plate assay (clearing zones) (E. coli ATCC 10536) | fraction unbound ([1]; purified peptide mixed with 90% serum, 30 kDa filter, HPLC, read-out: Protein binding (%) (converted)) | fraction unbound ([1]; serum)
CC(C)[C@@H]1NC(=O)CNC(=O)[C@H](CC(N)=O)NC(=O)[C@H](CCCNC(=N)N)NC(=O)[C@H](Cc2ccc(O)cc2)NC(=O)[C@H](C(C)C)NC(=O)[C@@H]2CSSC[C@H](NC(=O)[C@H](C(C)C)NC(=O)[C@H](CCCNC(=N)N)NC1=O)C(=O)N[C@@H](Cc1ccc(O)cc1)C(=O)N[C@@H](CCCNC(=N)N)C(=O)N[C@@H](CCCNC(=N)N)C(=O)N[C@H](C(=O)N[C@@H](CC(N)=O)C(=O)O)CSSC[C@H](NC(=O)[C@H](Cc1ccccc1)NC(=O)CN)C(=O)N[C@@H](Cc1c[nH]c3ccccc13)C(=O)N[C@@H](Cc1ccc(O)cc1)C(=O)N[C@@H](C(C)C)C(=O)N2 [SEQ ID NO: 2, reference compound] (H-GFCWYVCVYRNGVRVCYRRCN-OH; disulfide 3-20, 7-16) | fully inhibited | 0.005 | 
CC(C)[C@@H]1NC(=O)[C@H](CCCCN)NC(=O)[C@H](Cc2c[nH]c3ccccc23)NC(=O)[C@@H](NC(=O)[C@H](Cc2ccccc2)NC(=O)CN)CSSC[C@@H](C(=O)N[C@@H](CC(N)=O)C(=O)O)NC(=O)[C@H](CCCNC(=N)N)NC(=O)[C@H](CCCNC(=N)N)NC(=O)[C@H](Cc2ccc(O)cc2)NC(=O)[C@@H]2CSSC[C@H](NC1=O)C(=O)N[C@@H](C)C(=O)N[C@@H](CCCNC(=N)N)C(=O)N[C@@H](CCCNC(=N)N)C(=O)N[C@@H](CC(N)=O)C(=O)NCC(=O)N[C@@H](C)C(=O)N[C@@H](CCCNC(=N)N)C(=O)N[C@@H](CO)C(=O)N2 [compound 504] (H-GFCWKVCARRNGARSCYRRCN-OH; disulfide 3-20, 7-16 (inferred); N-terminus and C-terminus assumed) |  |  | 0.05
CC(C)[C@@H]1NC(=O)[C@@H]2CSSC[C@H](NC(=O)[C@H](CO)NC(=O)[C@H](CCCNC(=N)N)NC(=O)[C@H](CCCCN)NC(=O)CNC(=O)[C@H](CC(N)=O)NC(=O)[C@H](CO)NC(=O)[C@H](Cc3ccc(O)cc3)NC1=O)C(=O)N[C@@H](Cc1c[nH]cn1)C(=O)N[C@@H](CCCNC(=N)N)C(=O)N[C@@H](CCCNC(=N)N)C(=O)N[C@H](C(=O)N[C@@H](CC(N)=O)C(=O)O)CSSC[C@H](NC(=O)[C@H](Cc1ccccc1)NC(=O)CN)C(=O)N[C@@H](Cc1c[nH]c3ccccc13)C(=O)N[C@@H](CCCNC(=N)N)C(=O)N[C@@H](C(C)C)C(=O)N2 [compound 509] (H-GFCWRVCVYSNGKRSCHRRCN-OH; disulfide 3-20, 7-16 (inferred); N-terminus and C-terminus assumed) |  |  | 0.13
CC(C)[C@@H]1NC(=O)[C@H](CCCNC(=N)N)NC(=O)[C@H](Cc2c[nH]c3ccccc23)NC(=O)[C@@H](NC(=O)[C@H](Cc2ccccc2)NC(=O)CN)CSSC[C@@H](C(=O)N[C@@H](CC(N)=O)C(=O)O)NC(=O)[C@H](CCCNC(=N)N)NC(=O)[C@H](CCCNC(=N)N)NC(=O)[C@H](Cc2ccc(O)cc2)NC(=O)[C@@H]2CSSC[C@H](NC1=O)C(=O)N[C@@H](C)C(=O)N[C@@H](Cc1ccc(O)cc1)C(=O)N[C@@H](CCCCN)C(=O)N[C@@H](CC(N)=O)C(=O)NCC(=O)N[C@@H](CCCCN)C(=O)N[C@@H](CCCNC(=N)N)C(=O)N[C@@H](CO)C(=O)N2 [compound 523] (H-GFCWRVCAYKNGKRSCYRRCN-OH; disulfide 3-20, 7-16 (inferred); N-terminus and C-terminus assumed) |  |  | 0.1

From patent publication US20160158317A1, “Antimicrobial Peptide Variants and Polynucleotides Encoding Same” (Adenium Biotech A/S, priority 2010, published 2016)
